Results as given in patent US4163844A, “Nitrogen-containing heterocyclic compounds” (Yamanouchi Pharmaceutical Co., Ltd., priority 1976, dated 1979).

Columns and labels:
[1] = system: acetic acid-induced writhings; assay: Whittle's method: acetic acid-induced writhings; assay type: in vivo, Male ICR-Mice
Method: (§1) Male ICR-Mice (weighting 25-35 g.), one group being 12 mice, fasted overnight were used in this test. The sample was orally administered, and 20 minutes after, 5 ml./Kg. of 0.4% Evance blue was injected intravenously and further 10 minutes after, 10 ml./Kg. of 0.6% acetic acid was injected intraperitoneally. The number of writhings after 20 minutes since the administration of acetic acid was recorded and further 10 minutes after since then, the mice were killed by dislocation of the neck, the dye leaked in the abdominal cavity was washed out with 5 ml. of 0.9% saline to make the total amount 10 ml., and thereafter furs, blood corpuscles, etc., intermingled were removed by centrifugal separation at 3,000 r.p.m. for 5 minutes. Furthermore, for preventing turbidity caused by protein, 0.1 ml. of an aqueous 0.1 normal sodium hydroxide was added and then the absorbance at 590 nm was measured. The inhibition ratio of the sample administered rat groups to control groups was calculated.
(§2) In addition, the test samples used in the aforesaid tests (a), (b), (c) and (d) were prepared by suspending the test compounds, in the cases of using the compounds of Test Nos. 1-12 and phenylbutazone, in an aqueous 0.5% methyl cellulose solution, dissolving the test compounds, in the cases of using aminopyrine, in distilled water.

[2] = system: Carrageenin-induced edema; assay: Carrageenin-induced edema (Winter's method); assay type: in vivo, Male Wister rats; settings: oral, one hour before carrageenin, edema 3 hours after injection
Method: Male Wister rats (weighting 130-170 g.), one group being 6 rats, fasted overnight were used. According to Winter's method [Proc. Soc. […] After 3 hours, each rat was sacrificed by chloroform and the hind paw was cut and weighed immediately. By using the value obtained by subtracting the weight of the untreated hind paw from the weight of the hind paw having injected thereto the carrageenin as the weight of edema, the inhibitory ratio of the sample administered rat groups to control groups was calculated. The sample was orally administered before one hour of the injection of carrageenin.
as §2

[3] = system: Permeability (dye leakage into abdominal cavity); assay: Whittle's method: permeability (dye leaked in the abdominal cavity); assay type: in vivo, Male ICR-Mice
Method: as §1, §2

[4] = system: Hyperthermia caused by Brewer's yeast; assay: Antipyretic effect (Brewer's yeast hyperthermia); assay type: in vivo, Male Wister rats; set-up: key: rectal body temperature in °C; settings: in °C (unit assumed)
Method: Male Wister rats (weighting 130-150 g.), one group being 5 rats, were used. Hyperthermia was caused by subcutaneous injection of 2 ml./rat of 20% Brewer's yeast suspension. 18 hours later, the rats showing a rise in temperature exceeding 1° C. were selected and allocated into groups each consisting of 5 rats. The sample was orally administered and then the body temperature was measured with the passage of time for 6 hours since then. In addition, the body temperature was measured by measuring the temperature in the rectum by means of a thermister thermometer.
as §2

Acute toxicity = assay type: in vivo, Male Wister rats; settings: 500 mg/kg oral, observed 7 days; deaths/animals
Method: Male Wister rats (weighting 130-170 g.), one group being 5 rats, fasted overnight were used in this test.
as §2

[5] = 1 hour, 50mg/kg P.O., * significantly different from before administration (P<0.05)
[6] = 2 hours, 50mg/kg P.O., * significantly different from before administration (P<0.05)
[7] = 4 hours, 50mg/kg P.O., * significantly different from before administration (P<0.05)
[8] = 6 hours, 50mg/kg P.O., * significantly different from before administration (P<0.05)
[9] = before administration, group dosed 50mg/kg P.O.

| Molecule | Inhibition, Writhings ([1]; 50mg/kg P.O.) [%] | Inhibition (carrageenin-induced edema) ([2]; 25 mg/kg) [%] | Inhibition, Permeability ([3]; 50mg/kg P.O.) [%] | Inhibition (carrageenin-induced edema) ([2]; 50 mg/kg) [%] | also measured |
| --- | --- | --- | --- | --- | --- |
| 2-acetoxy-5-oxo-2,3-dihydro-5H-thiazolo[3,2-b]isoquinoline [Example 9] | 82.9 | 53.4 | – | – | – |
| 3-methyl-5-oxo-2,3-dihydro-5H-thiazolo[3,2-b]isoquinoline [Example 1] | 57.8 | – | 21.3 | – | Inhibition, Writhings ([1]; 25mg/kg P.O.): 24.8%; Inhibition, Permeability ([3]; 25mg/kg P.O.): 26.2% |
| 5-oxo-2,3-dihydro-5H-thiazolo[3,2-b]isoquinoline-1,1-dioxide [Example 8] | – | 57.5 | 23.5 | – | – |
| 5-oxo-5H-thiazolo[3,2-b]isoquinoline [Example 10] | 91.6 | 58.0 | 32.4 | – | – |
| 5-oxo-5H-thiazolo[3,2-b]isoquinoline-1,1-dioxide [Example 5] | – | 55.3 | 36.0 | 67.2 | Inhibition, Permeability ([3]; 25mg/kg P.O.): 22.6% |
| 6-oxo-2,3-dihydro-2H,6H-1,3-oxazino[3,2-b]isoquinoline [Example 2] | 14.4 | 41.7 | 20.1 | 71.2 | Inhibition, Writhings ([1]; 25mg/kg P.O.): 22.6%; Inhibition, Permeability ([3]; 25mg/kg P.O.): 4.7% |
| 6-oxo-3,4-dihydro-2H,6H-1,3-thiazino[3,2-b]isoquinoline [Example 3] | 67.5 | 47.0 | 37.0 | 74.0 | – |
| 6-oxo-3,4-dihydro-2H,6H-1,3-thiazino[3,2-b]isoquinoline-1,1-dioxide [Example 7] | 69.5 | 57.0 | 38.6 | – | – |
| 6-oxo-3,4-dihydro-2H,6H-1,3-thiazino[3,2-b]isoquinoline-1-oxide [Example 6] | 28.8 | 57.1 | 37.1 | – | – |
| Cc1c(N(C)C)c(=O)n(-c2ccccc2)n1C [Aminopyrine, reference compound] | 58.1 | – | 41.7 | – | Rectal temperature (mean±SE) [4, 5]: 37.92±0.09; Rectal temperature (mean±SE) [4, 6]: 37.49±0.10; Rectal temperature (mean±SE) [4, 7]: 37.39±0.07; Rectal temperature (mean±SE) [4, 8]: 37.76±0.19; Rectal temperature (mean±SE) [4, 9]: 39.24±0.14; Inhibition, Writhings ([1]; 25mg/kg P.O.): 29.6%; Inhibition, Permeability ([3]; 25mg/kg P.O.): 28.5% |
| O=c1c2ccccc2cc2n1CC[S+]2[O-] (stereo not drawn) [Example 4, 5-oxo-2,3-dihydro-5H-thiazolo[3,2-b]isoquinoline-1-oxide] | 39.7 | 41.2 | 41.1 | 65.1 | Inhibition, Writhings ([1]; 25mg/kg P.O.): 29.1%; Inhibition, Permeability ([3]; 25mg/kg P.O.): 22.1% |
| CCCCC1C(=O)N(c2ccccc2)N(c2ccccc2)C1=O [Phenylbutazone, reference compound] | – | 29.4 | – | 44.5 | – |
| O=c1c2ccccc2cc2n1CCCS2 [Test No. 1] | – | 54.8 | – | 69.8 | Rectal temperature (mean±SE) [4, 5]: 38.72±0.13; Rectal temperature (mean±SE) [4, 6]: 38.20±0.15; Rectal temperature (mean±SE) [4, 7]: 37.39±0.23; Rectal temperature (mean±SE) [4, 8]: 37.44±0.32; Rectal temperature (mean±SE) [4, 9]: 39.26±0.19 |
| O=c1c2ccccc2cc2n1CCCS2(=O)=O [Test No. 2] | – | – | – | – | Rectal temperature (mean±SE) [4, 5]: 39.04±0.23; Rectal temperature (mean±SE) [4, 6]: 38.41±0.21; Rectal temperature (mean±SE) [4, 7]: 37.32±0.31; Rectal temperature (mean±SE) [4, 8]: 37.55±0.33; Rectal temperature (mean±SE) [4, 9]: 38.94±0.14 |
| CC1CSc2cc3ccccc3c(=O)n21 (stereo not drawn) [Test No. 3] | – | – | – | – | Number of death (Acute toxicity): 3/5 |
| O=c1c2ccccc2cc2n1CCC[S+]2[O-] (stereo not drawn) [Test No. 5] | – | – | – | – | Number of death (Acute toxicity): 3/5 |
| O=Cc1c2n(c(=O)c3ccccc13)CCCS2 [Test No. 11] | – | 45.9 | – | – | – |
